{"source": "patent US20230181678A1", "about": "“NOVEL ANTIBACTERIAL PEPTIDE OR PEPTIDE ANALOG AND USE THEREOF” (CAMP THERAPEUTICS INC., priority 2020, published 2023)", "key": {"[1]": {"tested_on": "K.p. ATCC 700603", "assay": "MIC assay, sensitizing effect of peptide on rifampicin", "assay_type": "cell-based, Klebsiella pneumoniae", "details": "FIG. 9C, peptide 4 ug/ml", "experimental": "(§1) All MIC assay experiments were performed using the Clinical and Laboratory Standards Institute (CLSI) guidelines (Clinical & Laboratory Standards Institute: CLSI Guidelines, 2017). Bacterial cells cultured overnight were diluted to 0.05 McFarland standard using McFarland (KIT […] PLUS INSTRUMENT, Biomerieux) in Muller Hinton II Broth (cation-adjusted) (Difco). The cells were inoculated at 1.5×10^5 CFU per 200 μL solution of each well in a 96-well plate. The peptide and the antibiotic were prepared using 2-fold serially diluted concentrations. […] Incubation was performed at 37° C. for 18 hours, and then absorbance was measured at 600 nm using an EPOCH2 microplate reader (BioTek, Winooski, USA) to calculate a MIC value. The MIC value was defined as a concentration of the antibiotic or peptide at which bacterial growth was inhibited to a level of lower than 10% growth of the positive control. Fold reduction was calculated using the following expression.\n(§2) ATCC 25922, A.b. ATCC 17978, K.p. ATCC 700603, and P.a. ATCC 27853, or CRE (E.c. NDM-1, K.p. NDM-1, or K.p. KPC) (FIGS. 9 and 10)."}, "[2]": {"tested_on": "P.a. ATCC 27853", "assay": "MIC assay, sensitizing effect of peptide on rifampicin or colistin", "assay_type": "cell-based, Pseudomonas aeruginosa", "details": "peptide 4 ug/ml", "experimental": "as §1, §2"}, "[3]": {"tested_on": "Ec NDM-1", "assay": "MIC assay, sensitizing effect of peptide on rifampicin (CRE)", "assay_type": "cell-based, E. coli", "details": "FIG. 9E; Ec NDM-1 (CRE); peptide 4 ug/ml", "experimental": "as §1, §2"}, "[4]": {"tested_on": "K.p. KPC", "assay": "MIC assay, sensitizing effect of peptide on rifampicin or colistin (CRE)", "assay_type": "cell-based, Klebsiella pneumoniae", "details": "peptide 4 ug/ml", "experimental": "as §1, §2"}, "[5]": {"tested_on": "E.c. ATCC 25922, A.b. ATCC 17978, K.p. ATCC 700603, P.a. ATCC 27853, or CRE (E.c. NDM-1, K.p. NDM-1, or K.p. KPC)", "assay": "MIC assay, comparison with L9P on rifampicin or colistin", "assay_type": "cell-based", "details": "FIGS. 9 and 10", "experimental": "as §1, §2"}, "[6]": {"tested_on": "inner membrane of E. coli ATCC 25922", "assay": "Enzyme assay, inner membrane leakage (β-galactosidase release, ONPG)", "assay_type": "cell-based", "details": "1.5 mM ONPG", "experimental": "It was observed, through an enzyme assay, whether the sensitizing peptide destroyed the outer and inner membranes of Gram-negative bacteria. In the presence of the sensitizing peptide, it was observed whether in a case where 1.5 mM ONPG was used together therewith, β-galactosidase was released from E. coli ATCC 25922 for the inner membrane, and whether in a case where 200 μM CENTA was used together therewith, β-lactamase was released from E. coli NDM-1 for the outer membrane.\nTo determine leakage of the inner membrane, release of the cytoplasmic enzyme β-galactosidase was evaluated. The bacteria were diluted to OD600=1 and 1.5 mM ONPG (O-nitrophenyl-β-D-galactopyranoside) was added. Absorbance of a product of enzyme reaction was measured at 420 nm. The other procedures were carried out in the same manner as in the experiment for outer membrane destruction."}, "[7]": {"tested_on": "A. baumannii 801", "assay": "Immunosuppressed mouse pneumonia infection survival model", "assay_type": "in vivo", "experimental": "(§3) To induce neutropenia in 6-week-old female ICR (CD-1) mice weighing 23 g to 27 g (Orient Bio, Seongnam, Korea), the mice were treated (subcutaneously injected) with 150 mg/kg and 100 mg/kg of cyclophosphamide (CP), respectively, 4 days and 1 day before pneumonia infection. For a mouse model for survival analysis, the mice were infected intranasally with 1×10^8 CFU A. baumannii 801; and for a mouse model for colony number counting, the mice were infected intranasally with 1×10^6 CFU A. baumannii 801.\nThe sensitizing peptide CMP1401 of the present disclosure was administered by intraperitoneal injection 4 times daily for 2 days (25 mg/kg QID). Six mice were used per each group."}, "[8]": {"tested_on": "A. baumannii 801", "assay": "Neutropenic mouse pneumonia model, number of colonies in lungs", "assay_type": "in vivo", "experimental": "as §3\nIn addition to the survival rate in the neutropenic mouse pneumoniae mouse model, the number of colonies of A. baumannii 801 was measured in the mouse lungs. The mice were euthanized and lungs were harvested in sterile saline. The lungs were homogenized and serially diluted in sterile saline. The homogenized lungs were applied to tryptic soy agar plates, incubated at 37° C. overnight, and the number of colonies was counted. […] Six mice were used per each group."}, "[9]": {"tested_on": "A. baumannii ATCC 17978", "assay": "Neutropenic mouse thigh infection model", "assay_type": "in vivo", "experimental": "To induce neutropenia in 6-week-old female ICR (CD-1) mice weighing 23 g to 27 g (Orient Bio, Seongnam, Korea), the mice were treated (subcutaneously injected) with 150 mg/kg and 100 mg/kg of cyclophosphamide (CP), respectively, 5 days and 2 days before thigh infection. A. baumannii ATCC 17978 was harvested, washed, and suspended in sterile saline. The mice were anesthetized and infected with 1×10^5 CFU A. baumannii ATCC 17978 in the right and left thighs. […] The sensitizing peptide CMP1401 was administered by intraperitoneal injection 1, 3, 5, and 7 hours after infection. The mice were euthanized 9 hours after bacterial injection. Both thighs were harvested and suspended in sterile saline. The thighs were homogenized and serially diluted in sterile saline. The homogenized thighs were applied to tryptic soy agar plates, incubated overnight at 37° C., and the number of colonies was counted."}, "[10]": {"tested_on": "A. baumannii 801", "assay": "Immunosuppressed rat pneumonia infection model", "assay_type": "in vivo", "details": "5 mg/kg of rifampicin and 3 mg/kg or 6 mg/kg of CMP1401 (intravenous infusion 1 hour) vs 32 mg/kg colistin", "experimental": "The results are illustrated in FIG. 16.\n32 mg/kg of colistin is known as a clinical dose used for treatment of A. baumannii 801. Therefore, an effect observed in a case where 32 mg/kg of colistin was used alone may be a criterion for comparing effectiveness of co-administration of CMP1401 and an antibacterial agent in this example."}, "[11]": {"tested_on": "Acinetobacter baumannii ATCC 17978", "assay": "MIC assay, sensitizing effect of peptide on antibiotics", "assay_type": "cell-based"}, "[12]": {"details": "2.5 mg/kg rifampicin + 25 mg/kg CMP1401 vs 2.5 mg/kg rifampicin alone"}}, "note": "* marks the point of attachment. Octanoyl = CCCCCCCC(=O)*", "data": [{"substance": "OctA-KKALKLAKKPLKLLK-NH2 (Octanoyl-KKALKLAKKPLKLLK-NH2) [CMP1401]", "values": [{"measurement": "Decreased MIC value of rifampicin at peptide concentration of 4 ug/ml", "setting": "[1]", "value": 0.0078, "unit": "µg/mL"}, {"measurement": "Decreased MIC value of rifampicin at peptide concentration of 4 ug/ml", "setting": "[2]; FIG. 9D", "value": 0.25, "unit": "µg/mL"}, {"measurement": "Decreased MIC value of colisitin at peptide concentration of 4 ug/ml", "setting": "[2]; FIG. 10B", "value": 0.016, "unit": "µg/mL"}, {"measurement": "Decreased MIC value of rifampicin at peptide concentration of 4 ug/ml", "setting": "[3]", "value": 0.0040, "unit": "µg/mL"}, {"measurement": "Decreased MIC value of rifampicin at peptide concentration of 4 ug/ml", "setting": "[4]; FIG. 9G", "value": 0.0078, "unit": "µg/mL"}, {"measurement": "Decreased MIC value of colisitin at peptide concentration of 4 ug/ml", "setting": "[4]; FIG. 10C", "value": 0.25, "unit": "µg/mL"}, {"measurement": "sensitizing effect on rifampicin or colistin compared with L9P", "setting": "[5]", "value": "very good sensitizing effect"}, {"measurement": "destruction of inner membrane (β-galactosidase release)", "setting": "[6]", "value": "did not destroy these membranes"}, {"measurement": "survival rate", "setting": "[7]; 2.5 mg/kg of rifampicin and 25 mg/kg of CMP1401 (intraperitoneal, QID) co-administered", "value": 50, "unit": "%"}, {"measurement": "survival rate higher than rifampicin alone", "setting": "[7]; [12]", "value": "about 33.3%"}, {"measurement": "survival / antibacterial activity, peptide administered alone", "setting": "[7]; CMP1401 administered alone", "value": "all mice died"}, {"measurement": "number of colonies fewer than rifampicin alone group", "setting": "[8]; [12]", "value": "about 12 times"}, {"measurement": "number of colonies fewer than untreated group (control)", "setting": "[8]; rifampicin and CMP1401 co-administered vs untreated", "value": "about 60 times"}, {"measurement": "number of colonies fewer than rifampicin and SPR741 group", "setting": "[8]; rifampicin and CMP1401 vs rifampicin and SPR741", "value": "about 30 times"}, {"measurement": "decrease in number of colonies compared with rifampicin alone", "setting": "[9]; CMP1401 100 mg/kg in the presence of 20 mg/kg of rifampicin", "value": 14, "unit": "fold"}, {"measurement": "number of colonies, peptide administered alone", "setting": "[9]; CMP1401 alone at 50 mg/kg", "value": "No changes were observed in the number of colonies"}, {"measurement": "therapeutic efficacy of combination therapy with rifampicin", "setting": "[9]; rifampicin and CMP1401", "value": "excellent therapeutic efficacy"}, {"measurement": "effect of co-administration with rifampicin compared with colistin", "setting": "[10]", "value": "comparable to that observed in a case where 32 mg/kg of colistin was administered"}, {"measurement": "Decreased MIC value of rifampicin at peptide concentration of 4 ug/ml", "setting": "[11]; FIG. 9B, A.b. ATCC 17978, peptide 4 ug/ml", "value": 0.031, "unit": "µg/mL"}, {"measurement": "sensitizing effect for fusidic acid", "setting": "[11]; peptide 0.31 μM, vs fusidic acid alone", "value": 250, "unit": "times"}, {"measurement": "sensitizing effect for novobiocin", "setting": "[11]; peptide 0.31 μM, vs novobiocin alone", "value": 16, "unit": "times"}, {"measurement": "sensitizing effect for rifampicin", "setting": "[11]; peptide 0.31 μM, vs rifampicin alone", "value": 64, "unit": "times"}]}]}
